Laboratory results: US7208154B2, “Methods and compositions for the treatment of MHC-associated conditions” (Regents of the University of Michigan, priority 2002, dated 2007)
No end group written: not given here.

Experiments:
[1] = molecular target: T1, human A2B adenosine receptor (Homo sapiens, UniProt P29275); assay: Comet assay DNA repair in HEK293/A2b transfectants; type: cell-based; conditions: 20 min pretreatment, various doses
T1 construct: expressed in transfected cells; provided by Joel Linden
T1 sequence (P29275 1-332): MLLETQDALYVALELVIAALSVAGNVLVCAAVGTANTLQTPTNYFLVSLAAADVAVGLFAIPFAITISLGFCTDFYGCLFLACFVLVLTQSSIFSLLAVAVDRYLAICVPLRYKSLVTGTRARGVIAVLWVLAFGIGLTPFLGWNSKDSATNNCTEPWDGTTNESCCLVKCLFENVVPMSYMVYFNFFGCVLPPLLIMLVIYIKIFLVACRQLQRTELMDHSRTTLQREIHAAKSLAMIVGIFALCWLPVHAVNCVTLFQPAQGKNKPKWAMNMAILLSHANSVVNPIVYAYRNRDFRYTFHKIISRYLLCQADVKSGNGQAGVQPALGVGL
Description: (§1) To quantify DNA damage, cells were collected and three parallel samples were processed (a negative control, a DNA damage control (H2O2) and a sample subjected to H2O2 following exposure to various modulators of the cAMP signaling pathway). Cells are then washed in PBS. The washed cells are combined with molten low-melting agarose (Trevigen Cat. No. 4250-50-02) and transferred to a CometSlide™ (Trevigen Cat. No. 4250-100-03). The slides are immersed in lysis buffer for 30 min, on ice, in the dark. The slides are then treated with alkali buffer for 20 to 60 min at room temperature in the dark. The slides are then electrophoresed in buffer for 10 min at 20 volts, then fixed in methanol and ethanol. The slides are then stained with SYBR green (Trevigen Cat. No. 4250-50-05) solution and fluorescently imaged with a Diagnostic Instruments digitized camera, mounted on a Nikon Eclipse E400 microscope. Scion Image software is used to quantitate the comet tail intensity. Each data point is derived from tail fluorescent intensity determination in 50–100 individual cells. Data is presented as % DNA repair (the percent decrement in tail fluorescence intensity in agonist or antagonist-treated cells, relative to the intensity recorded in cells treated with H2O2 only)±SEM. (R.U.s)
(§2) Human embryonic kidney 293 cells (HEK 293) transfected with adenosine receptors were provided by Joel Linden. […]

[2] = test system: human fibroblastoid line M1 cells; conditions: for Inhibition of cAMP-mediated (2CA-induced) DNA repair induction: M1 cells preincubated overnight with 50 μg/ml soluble peptide
Text: To further determine the signaling pathways involved in DNA repair induction, the inventors used the Trevigen CometAssay™ kit (Cat. No. 4250-50-K). The CometAssay is a single-cell gel electrophoresis method that can measure a variety of types of DNA damage, and repair of damage, in individual cells. The assay is based on the alkaline lysis of labile DNA at sites of damage. The unwound, relaxed DNA is able to migrate out of the cell during electrophoresis and can be visualized by SYBR Green staining.
as §1
(§3) To directly examine that possibility, cells were incubated overnight with synthetic peptides corresponding to the region contained within amino acids 65–79 and their ability to mount DNA repair activity in response to cAMP-elevating agents was determined. M1 cells were preincubated overnight with 50 μg/ml of synthetic peptides corresponding to the region surrounding the third allelic hypervariable region (aa 65–79) of each of the following DRβ chains: *0401 (65–79*0401) [SEQ ID NO: 5], *0402 (65–79*0402) [SEQ ID NO: 7], *0403 (65–79*0403) [SEQ ID NO: 9] or *0404(65–79*0404) [SEQ ID NO: 10]. At the end of the preincubation, cells were collected, washed and 2CA-induced DNA repair was determined as above. Table 3 (above) lists the different third allelic hypervariable region peptides used in the entire study disclosed here.
A modified method as described previously by Auger et al. [Nature Med 2:306–310 1996] was used. Briefly, cyanogen bromide activated Speharose 4B (1.5 ml) was washed with 1 mM HCl and incubated with peptides in 0.1 M NaHCO3 and 0.5 M NaCl (pH 8) buffer overnight at 4° C. For each peptide, 5 mg was used per milliliter of Sepharose. Free Sepharose groups were blocked with 0.2 M glycine (pH 8) for 2 hours at room temperature. Columns were washed at 4° C. with the following buffers: 0.1 M NaHCO3, 0.5 M NaCl (pH 8) buffer, then 0.5 M CH3COONa (pH 4) buffer and finally PBS at pH 7.5. M1 cells were plated at a density of 0.5×10^6 cells per well (6 well plate) in 10% FBS DMEM medium until 70–80% confluence. Prior to incubation with peptides, cultures were changed to serum-free DMEM medium, then evenly overlaid with 50 μg bead conjugated peptides, and incubated for the indicated period. Soluble peptides were added overnight to M1 cells at a concentration of 50 μg/ml.

[3] = molecular target: T2, human A2A adenosine receptor (Homo sapiens, UniProt P29274); assay: Comet assay DNA repair in HEK293/A2a transfectants; type: cell-based; conditions: 20 min pretreatment, various doses
T2 construct: expressed in transfected cells; provided by Joel Linden
T2 sequence (P29274 whole entry): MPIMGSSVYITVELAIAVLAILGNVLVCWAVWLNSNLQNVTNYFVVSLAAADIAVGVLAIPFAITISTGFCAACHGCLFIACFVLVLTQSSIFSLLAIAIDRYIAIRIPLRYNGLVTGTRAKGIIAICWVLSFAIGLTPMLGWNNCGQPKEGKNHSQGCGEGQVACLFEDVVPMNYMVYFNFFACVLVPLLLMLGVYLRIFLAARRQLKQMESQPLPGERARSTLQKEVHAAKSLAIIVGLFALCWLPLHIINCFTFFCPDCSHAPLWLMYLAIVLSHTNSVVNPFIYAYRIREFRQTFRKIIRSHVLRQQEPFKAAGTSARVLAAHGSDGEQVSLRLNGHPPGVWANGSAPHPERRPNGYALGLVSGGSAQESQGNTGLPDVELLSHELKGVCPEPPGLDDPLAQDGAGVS
Description: as §1, §2

Protein kinase A (PKA) = assay: PKA activity in M1 cells after 2CA; type: cell-based, human; conditions: M1 cells preincubated with peptide-conjugated beads, 10 μM 2CA
Description: Protein kinase A (PKA) was measured using the Life Technologies™ Protein Kinase A (cAMP-dependent Protein Kinase) Assay System (Cat. No. 13128-012). The basis of the assay system is the use of a heptapeptide substrate and a 17-amino acid inhibitor peptide (which is valuable for proving PKA-specific protein kinase activity). Four assay conditions per experimental condition are recommended by the manufacturer (+/− inhibitor and +/− cAMP) to determine total PKA-specific kinase activity and proportion of PKA activated in the cells or tissue of interest. Briefly, the four parallel assay conditions are set up for each of the four assay conditions for a given cell or tissue sample, according to the manufacturer's instructions. Substrate and [γ-^32P]ATP (3000–6000 Ci/mmol stock solution) are then added to each tube, and incubated according to the manufacturer's instructions. Following the incubation period, a sample from each tube is spotted onto a […] disc, which is the acid washed prior to scintillation counting (all according to the manufacturer's instructions). Activity can then be determined as described by the manufacturer of the kit.
B.) PKA activity was determined in M1 cells preincubated with peptide-conjugated beads [Bead*0401, SEQ ID NO: 6; Bead*0402, SEQ ID NO: 8], at different time points following treatment with 10 μM 2CA as above.

M1 cells = assay: Intracellular cAMP level (enzyme immunoassay) in M1 cells after 2CA; type: cell-based, human; conditions: M1 cells preincubated 10 min with peptide-conjugated beads, 10 or 100 μM 2CA
Description: cAMP was determined by using an Amersham Pharmacia Biotech cAMP enzymeimmunoassay (EIA) system (code RPN 225). The reagents are prepared as described by the manufacturer (lysis reagents 1 and 2, the standard for the non-acetylation assay, the anti-cAMP antiserum, the cAMP peroxidase conjugate and wash buffer). […] Samples are added, followed by the antiserum solution. Following the recommended incubation, cAMP-peroxidase conjugate is added and incubated according to the recommended protocol. Each well is then aspirated and washed, and enzyme substrate is added and incubated. The results can then be read at 630 nm or at 450 nm (depending on the time of incubation and method of stopping the reaction), again according to the manufacturer's protocol.
A.) cAMP levels were assayed in M1 cells that were preincubated for 10 minutes with peptide-conjugated beads [Bead*0401, SEQ ID NO:6; Bead*0402, SEQ ID NO: 8], and intracellular cAMP level changes in response to stimulation with either 10 μM (FIG. 10A, top) or 100 μM (FIG. 10A, bottom) of 2CA were determined at different time points. cAMP levels were measured using a commercial enzyme immunoassay kit from Pharmacia. Results are expressed as fold increase of cAMP above baseline levels.

[4] = test system: Total cellular protein extracts; assay: Peptide affinity chromatography of total cellular protein extracts; type: binding; conditions: total cellular protein extracts loaded
Text: Total cellular protein extracts were loaded onto columns of Sepharose beads, conjugated with either shared epitope-containing peptide 65–78*0404 [SEQ ID NO: 28] or the control peptide 65–78*0402 [SEQ ID NO: 8]. Bound proteins were eluted at low pH. […] 11 sequenced bands matched intracellular proteins, and only two sequences matched previously identified cell surface proteins: heat shock protein 60 (HSP60) and calreticulin. Both calreticulin and HSP60 are chaperones, with strong tendency to form hetero-complexes.

[5] = molecular target: T3, purified recombinant calreticulin (Homo sapiens, UniProt P27797); assay: Surface plasmon resonance, peptides immobilized on CM5 chip, calreticulin in flow phase; type: binding; conditions: peptide immobilized on Biacore sensor chip CM5
T3 sequence (P27797 18-417): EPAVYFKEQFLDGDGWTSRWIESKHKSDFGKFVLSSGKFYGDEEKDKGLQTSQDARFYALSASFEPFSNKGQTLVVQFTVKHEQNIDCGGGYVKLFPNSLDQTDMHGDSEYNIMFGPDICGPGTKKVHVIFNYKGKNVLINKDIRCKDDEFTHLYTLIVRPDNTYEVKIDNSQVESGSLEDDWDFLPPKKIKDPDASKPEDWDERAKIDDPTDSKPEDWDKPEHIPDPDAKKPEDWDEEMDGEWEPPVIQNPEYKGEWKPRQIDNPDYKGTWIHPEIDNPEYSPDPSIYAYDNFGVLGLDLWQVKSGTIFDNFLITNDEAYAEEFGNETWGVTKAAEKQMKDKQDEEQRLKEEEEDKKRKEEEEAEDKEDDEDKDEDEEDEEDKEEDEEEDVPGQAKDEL
Text: To determine whether 65–78*0404 [SEQ ID NO: 28]-conjugated peptides bind these proteins directly, purified recombinant products were used. […] Shared epitope-containing peptides, 65–79*0401-[SEQ ID NO: 5] and 65–79*0404-[SEQ ID NO: 10], as well as a control peptide 65–79*0402-[SEQ ID NO: 7] were immobilized on different channels in a Biacore® sensor chip CM5 and purified recombinant calreticulin was applied in the flow phase.

mouse cells = assay: cAMP-mediated DNA repair induction in mouse cells (data not shown); type: cell-based
Description: as §3

## Nc1nc(Cl)nc2c1ncn2[C@@H]1O[C@H](CO)[C@@H](O)[C@H]1O [2CA, 2-chloroadenosine]
[1]
  2CA-induced DNA repair signal transduced: transduced the signal
[2]; M1 cells stimulated 20 min with various concentrations before 100 μM H2O2
  DNA repair triggered: triggered in all cases DNA repair
[3]
  2CA-induced DNA repair signal transduced: transduced the signal

## Bead*0401: Sepharose beads chemically conjugated to 14-mer peptide, residues 65–78 of DRβ*0401 chain [SEQ ID NO: 6] (KDLLEQKRAAVDTY; also: conjugated to Sepharose beads)
Protein kinase A (PKA)
  PKA activation following 2CA: failed to increase cAMP levels or activate PKA
M1 cells
  cAMP level response to 2CA: failed to increase cAMP levels
[2]; M1 cells preincubated for various times with peptide-conjugated beads
  Block of cAMP-mediated (2CA-induced) DNA repair by Sepharose bead-conjugated peptide: blocked cAMP-mediated DNA repair

## KDILEDERAAVDTYC [65–79*0402, control peptide, amino acids 65–79 of the β chain encoded by the HLA-DRB*0402 allele]
[4]
  Protein binding: distinct bands in low pH eluates of peptide-conjugated Sepharose column: no protein binding was detected

## KDLLEQKRAAVDTYC [65–79*0401, synthetic peptide corresponding to amino acids 65–79 of the β chain encoded by the HLA-DRB*0401 allele]
[5]
  Calreticulin binding compared to control peptide 65–79*0402: markedly higher calreticulin binding
[2]
  Inhibition of cAMP-mediated (2CA-induced) DNA repair induction: inhibited cAMP-mediated DNA repair induction
Mouse cells
  Inhibition of cAMP-mediated DNA repair induction: inhibited cAMP-mediated DNA repair induction

## KDLLEQRRAAVDTYC [65–79*0404, synthetic peptide corresponding to amino acids 65–79 of the β chain encoded by the HLA-DRB*0404 allele]
[5]
  Calreticulin binding compared to control peptide 65–79*0402: markedly higher calreticulin binding
[2]
  Inhibition of cAMP-mediated (2CA-induced) DNA repair induction: inhibited cAMP-mediated DNA repair induction
Mouse cells
  Inhibition of cAMP-mediated DNA repair induction: inhibited cAMP-mediated DNA repair induction
